Test results from patent US20260207666A1, “CD38 AS INTEGRATION SITE FOR ENHANCED FUNCTION OF GENE-MODIFIED IMMUNE CELLS” (RESEARCH INSTITUTE AT NATIONWIDE CHILDREN'S HOSPITAL, priority 2022, published 2026).
Entries after “also recorded” stand apart in the source; their conditions may differ.

Columns and labels:
human primary NK cells = test: CD38 and CD38-CAR expression by flow cytometry in NK cells; type: cell-based; details: CAR inserted at CD38 locus, 75,000 vg/cell AAV6, seven days post-transduction (FIG. 18C)
Protocol: (§1) CD38^KO/CD38-CAR T cells or NK cells were generated by electroporation of HiFi Cas9 Nuclease V3 (Integrated DNA Technologies, Coralville, IA) and gRNA targeting exon 1 of the CD38 gene (5-[…]) (SEQ ID NO: 1). Knock-out cells were then returned to culture media and transduced within 30 minutes with 75,000 vg/cell of Adeno-Associated Virus Type 6 (AAV6, Andelyn Biosciences) vector containing the CAR expression cassette with CD38 homology arms.
(§2) Cells were stained in PBS buffer containing 2% FBS using anti-CD38/PE (Miltenyi Biotec, clone REA572), CD38 Fc Chimera Protein (R&D Systems, rhCD38) followed by secondary staining with Alexa Fluor 647 AffiniPure Goat Anti-Human IgG (Jackson ImmunoResearch), and Tonbo Ghost Dye 450 (Tonbo Biosciences, San Diego, CA, USA). See representative gating strategy (FIG. 25).

human primary T cells = test: CD38 and CD38-CAR expression by flow cytometry in T cells; type: cell-based; details: T cells, 75,000 vg/cell AAV6 (FIG. 22B)
Protocol: Human primary T cells were isolated from donor buffy coats using RosetteSep™ Human T Cell Enrichment Cocktail (Stem Cell Technologies, Vancouver, BC, Canada) as described for NK cells. Isolated T cells were stimulated on day 0 with Human T-Activator CD3/CD28 (Thermo Fisher Scientific). Stimulated T cells were cultured in RPMI 1640 media plus Glutamax, 10% FBS at a concentration of 1.0e6 cells/mL and supplemented with 50 IU/mL human recombinant IL-7 and IL-15 (Biolegend, San Diego, CA) every 2-3 days.
Two days after cytokine activation the T cells were electroporated and transduced as described below. After transduction the cells were expanded in RPMI 1640 media plus Glutamax, 10% FBS at 1.0e6 cells/mL with IL-7 and IL-15 supplemented at 50 IU/mL every 2-3 days for up to 10 days.
as §1, with “arms. […]” for “arms.”

H929 = test: 4-hour calcein AM cytotoxicity assay; type: cell-based, human; details: H929 (MM), 4-hour assay
Protocol: (§3) CSTX002 feeder cells, derived from K562 and transduced to express membrane-bound IL-21 and 4-1BBL (referred to hereafter as FC21) were cultured in RMPI 1640 media containing 10% fetal bovine serum (FBS) at 37° C., 5% CO2. FC21 were treated with 100 Gy x-ray irradiation (Faxitron, Tucson AZ) prior to coculture with NK cells. Human AML cell line MV4-11, MM cell lines MM1S and H929, and BL cell lines Daudi and Raji were purchased from American type culture collection (ATCC). Primary human AML cells (AML10) were obtained from a pediatric patient with relapsed M5 AML and passaged in NOD-SCID mice. Primary human AML, Pre-T ALL, T-PLL, MM, and HSTCL were obtained from the Ohio State University Comprehensive Cancer Center Leukemia Tissue Bank. Tumor cell lines were cultured in RPMI 1640 media plus Glutamax, 10% FBS and routinely tested for mycoplasma contamination. Anonymized human buffy coats were obtained from the American Red Cross of Ohio (Columbus, OH, USA) as healthy donor lymphocyte source material, designated not human subjects research by the institutional review board.
(§4) 4-hour cytotoxicity assays were performed using calcein AM (Fisher Scientific, Hampton, NH). Briefly, target tumor cells were stained with 2 μg/mL calcein AM and co-cultured with effector cells at the indicated Effector:Target ratios. After 4 hours, culture supernatant was assessed by fluorimetry and percent specific lysis calculated using maximum and minimum controls. Cytotoxicity is plotted as percent specific lysis.

Raji = test: 4-hour calcein AM cytotoxicity assay; type: cell-based, human; details: Raji (BL), 4-hour assay
Protocol: as §3, §4

MV4-11 = test: 4-hour calcein AM cytotoxicity assay; type: cell-based, human; details: MV4-11 (AML), 4-hour assay
Protocol: as §3, §4

MM cell lines = test: CD38 surface expression after ATRA treatment (flow cytometry); type: cell-based, human; details: intermediate to high CD38-expressing MM cell lines, 10 nM ATRA for 48 hours
Excerpt: as §2
(§5) To further augment the antitumor activity of the CD38-CAR NK cells, we explored combination therapy with ATRA. ATRA is a differentiation agent that upregulates CD38 expression in many cell types. Across cell lines of AML, MM, and BL, we observed variable responses in CD38 expression after treatment with 10 nM ATRA for 48 hours (FIG. 20A). […] Thus, ATRA appears to have a cell line dependent effect on the increase in CD38 surface density and sensitivity to CAR NK cell killing (FIG. 20A, 20C).

AML cell lines = test: as above; type: cell-based, human; details: AML cell lines with lowest baseline CD38, 10 nM ATRA for 48 hours
Excerpt: as §2, §5

BL = test: as above; type: cell-based, human; details: high CD38-expressing BL, 10 nM ATRA for 48 hours
Excerpt: as §2, §5

primary AML cells = test: Mass cytometry lysis assay; type: cell-based, human; details: with ATRA, prior to co-culture with NK cells
Protocol: A primary AML patient cell sample (OSU leukemia tissue bank) was cultured in a 6-well plate (pre-coated with rat tail collagen [Corning]) in serum free media (SFEM) supplemented with a cytokine cocktail (IL-6, IL-3, FLT3, GMCSF, GCSF, and TPO at 6.66 ng/mL, EPO at 3.33 ng/mL, SCF at 20 ng/mL; Stem Cell Technologies). The primary AML samples were cultured for 24 hours with or without 10 nM ATRA. After 24 hours, wild-type or CD38^KO/CD38 CAR-NK cells were added at a ratio of 1:1 and co-cultured for 24 hours. Control wells were cultured in parallel. Cell were stained and events were acquired on the Helios CyTOF system (Fluidigm, Toronto, Canada). Cells were identified using markers and analyzed using SPADE.

CD38^KO NK cells = test: Effect of ATRA on NK cell function or viability; type: cell-based, human

Row | Compound | median AAV6 transduction efficiency (human primary NK cells) | median AAV6 transduction efficiency (human primary T cells) | cytotoxicity compared to wildtype cells (H929) | cytotoxicity compared to wildtype cells (Raji) | cytotoxicity compared to wildtype cells (MV4-11) | CD38 expression after ATRA treatment (MM cell lines) | CD38 expression after ATRA treatment (AML cell lines) | CD38 expression after ATRA treatment (BL) | live cell population of primary AML cells (primary AML cells) | adverse effect on function or viability of CD38^KO NK cells (CD38^KO NK cells)
1 | V4: Isatuximab-based anti-CD38 CAR construct with reversed heavy/light chain order, SEQ ID NO: 29/30 | 61.9% | 35.9% | significant increase in cytotoxicity | significant increase in cytotoxicity | significant increase in cytotoxicity |  |  |  |  | 
2 | V3: Isatuximab-based anti-CD38 second-generation CAR construct with CD3ζ, 41BB and CD8α TM/hinge, SEQ ID NO: 27/28 | 60.7% | 44.4% | significant increase in cytotoxicity | significant increase in cytotoxicity | significant increase in cytotoxicity |  |  |  |  | 
3 | CC1=C(/C=C/C(C)=C/C=C/C(C)=C/C(=O)O)C(C)(C)CCC1 [ATRA, all-trans retinoic acid] |  |  |  |  |  | minor increase | greatest proportional increase; also recorded: greatest increases | no observable increase | 77.5% | did not have any adverse effect
